The values below are quoted from earlier work in US20230355730A1, “METHODS FOR TREATING AUTOIMMUNE DISEASE USING BIOCOMPATIBLE BIOABSORBABLE NANOSPHERES” (UTI Limited Partnership, priority 2010, published 2023).

For this series, the system named is IGRP206-214-reactive CD8^+ T-cells. The note with it: cited from earlier work; for T1D protection: chronic treatment, moderate doses (NRP-A7), high doses (NRP-I4, NRP-V7, IGRP206-214).

Turning to KYNIANVFL (SEQ ID NO:7) [NRP-I4], the T1D protection result is given as “afforded T1D protection”.

“VYLKTNVFL (SEQ ID NO:4) [IGRP206-214, natural ligand]”: the T1D protection result was “only afforded marginal protection”.

For the sequence KYNKANVFL (SEQ ID NO:8) [NRP-V7], the T1D protection entry was “only afforded marginal protection”.

Turning to KYNKANAFL (SEQ ID NO:6) [NRP-A7], the T1D protection entry was “afforded T1D protection”. For the same sequence, the “avidity maturation of the IGRP206-214-reactive CD8^+ subset” value (pre-diabetic NOD mice, soluble peptide) is “blunted avidity maturation”.
